Data: publication PMC6178189 (Oxidative Medicine and Cellular Longevity, 2018)
Values after ≈ are worked out from the molar mass of the structure shown.

Target: T1, rat intestinal α-glucosidase
T1 construct: gene Si; crude saline extract of commercial rat intestinal acetone powder (Sigma-Aldrich); mixed brush-border alpha-glucosidases, not purified
Assay: p-nitrophenol release from pNPG, […] nm
Assay type: biochemical
Settings: 5 mM p-nitrophenyl glucopyranoside (maltose or sucrose also named in method; substrate of the table value not told), 0.1 M phosphate pH 6.9, 37°C, 30 min, crude enzyme

C[C@H]1O[C@H](O[C@H]2[C@H](O)[C@@H](O)[C@@H](O[C@H]3[C@H](O)[C@@H](O)C(O)O[C@@H]3CO)O[C@@H]2CO)[C@H](O)[C@@H](O)[C@@H]1N[C@H]1C=C(CO)[C@@H](O)[C@H](O)[C@H]1O (stereo partly shown) [acarbose]
IC50 (mg/mL) / α-Glucosidase: 1.63 ± 0.10 mg/mL (≈ 2520 µM)
